The subject of series [1] is TRPC5. Also noted: method as in Richter et al., 2014; Zhou et al., 2017; Zhu et al., 2015. As to conditions: ref Richter et al., 2014; Zhou et al., 2017; Zhu et al., 2015; read-out: IC50 for inhibition of TRPC5; cited from earlier work.
In series [2] the test system is TRPC5. The arrangement: method as in Minard et al., 2019. As to conditions: ref Minard et al., 2019; read-out: EC50 as TRPC5 activator; cited from earlier work.
Series [3] concerns the molecule itself. In words: cryo-EM structure; purified hTRPC5(1-764) in GDN micelles with 100 uM Ca2+ plus 500 uM CMZ, 50 uM HC-070 or EA (EA not seen, 'apo'); graphene oxide grids; C4 symmetry imposed in refinement.
Series [4] deals with the molecule itself. Nature of the series: SEC; fluorescence-detection SEC (FSEC) of transfected HEK293F cells solubilised in 1% LMNG, 0.1% CHS in TBS (20 mM Tris-HCl pH 8.0, 150 mM NaCl), 4°C; Superose-6 Increase. (In general: SEC sorts molecules by how far they enter the pores of the column.)

As to `c1ccc(Cn2c(NCc3ccco3)nc3ccccc32)cc1` [AC1903], the IC50 (commonly the concentration needed to halve the response being measured) in the series on TRPC5 [1] is 14.7 µM.
With `Cn1c(=O)n(CCCO)c(=O)c2c1nc(Oc1ccc(Cl)c(OC(F)(F)F)c1)n2Cc1ccc(Cl)cc1` [AM237], the EC50 – broadly, the midpoint of the concentration-response curve – in the series on TRPC5 [2] was 0.015 to 0.02 µM.

B1: human TRPC5 residues 1-764 (hTRPC5_(1-764)), purified tetrameric channel (domain or fragment, UniProt Q9UL62 1-764, looked up)
chain: MAQLYYKKVNYSPYRDRIPLQIVRAETELSAEEKAFLNAVEKGDYATVKQALQEAEIYYNVNINCMDPLGRSALLIAIENENLEIMELLLNHSVYVGDALLYAIRKEVVGAVELLLSYRRPSGEKQVPTLMMDTQFSEFTPDITPIMLAAHTNNYEIIKLLVQKRVTIPRPHQIRCNCVECVSSSEVDSLRHSRSRLNIYKALASPSLIALSSEDPILTAFRLGWELKELSKVENEFKAEYEELSQQCKLFAKDLLDQARSSRELEIILNHRDDHSEELDPQKYHDLAKLKVAIKYHQKEFVAQPNCQQLLATLWYDGFPGWRRKHWVVKLLTCMTIGFLFPMLSIAYLISPRSNLGLFIKKPFIKFICHTASYLTFLFMLLLASQHIVRTDLHVQGPPPTVVEWMILPWVLGFIWGEIKEMWDGGFTEYIHDWWNLMDFAMNSLYLATISLKIVAYVKYNGSRPREEWEMWHPTLIAEALFAISNILSSLRLISLFTANSHLGPLQISLGRMLLDILKFLFIYCLVLLAFANGLNQLYFYYETRAIDEPNNCKGIRCEKQNNAFSTLFETLQSLFWSVFGLLNLYVTNVKARHEFTEFVGATMFGTYNVISLVVLLNMLIAMMNNSYQLIADHADIEWKFARTKLWMSYFDEGGTLPPPFNIIPSPKSFLYLGNWFNNTFCPKRDPDGRRRRRNLRSFTERNADSLIQNQHYQEVIRNLVKRYVAAMIRNSKTHEGLTEENFKELKQDISSFRYEVLDLLGNR
notes: human TRPC5 (transient receptor potential canonical 5), C-terminally truncated construct, residues 1-764; That this removes the GFP-MBP tag is surmised; also called apo hTRPC5; source: HEK293F, BacMam baculovirus infection, purified (MBP resin, H3C protease digestion, Superose-6 Increase SEC in GDN); not shown: GFP, N-terminal, cleaved; MBP, N-terminal, cleaved
As for B1, the stoichiometry N – broadly, a count of units in the complex or per binding partner – in series [3] came out at 4.

B2: GFP-MBP-tagged human TRPC5 residues 1-764 (hTRPC5_(1-764)) as screened by FSEC (domain or fragment, UniProt Q9UL62 1-764, looked up)
chain: MAQLYYKKVNYSPYRDRIPLQIVRAETELSAEEKAFLNAVEKGDYATVKQALQEAEIYYNVNINCMDPLGRSALLIAIENENLEIMELLLNHSVYVGDALLYAIRKEVVGAVELLLSYRRPSGEKQVPTLMMDTQFSEFTPDITPIMLAAHTNNYEIIKLLVQKRVTIPRPHQIRCNCVECVSSSEVDSLRHSRSRLNIYKALASPSLIALSSEDPILTAFRLGWELKELSKVENEFKAEYEELSQQCKLFAKDLLDQARSSRELEIILNHRDDHSEELDPQKYHDLAKLKVAIKYHQKEFVAQPNCQQLLATLWYDGFPGWRRKHWVVKLLTCMTIGFLFPMLSIAYLISPRSNLGLFIKKPFIKFICHTASYLTFLFMLLLASQHIVRTDLHVQGPPPTVVEWMILPWVLGFIWGEIKEMWDGGFTEYIHDWWNLMDFAMNSLYLATISLKIVAYVKYNGSRPREEWEMWHPTLIAEALFAISNILSSLRLISLFTANSHLGPLQISLGRMLLDILKFLFIYCLVLLAFANGLNQLYFYYETRAIDEPNNCKGIRCEKQNNAFSTLFETLQSLFWSVFGLLNLYVTNVKARHEFTEFVGATMFGTYNVISLVVLLNMLIAMMNNSYQLIADHADIEWKFARTKLWMSYFDEGGTLPPPFNIIPSPKSFLYLGNWFNNTFCPKRDPDGRRRRRNLRSFTERNADSLIQNQHYQEVIRNLVKRYVAAMIRNSKTHEGLTEENFKELKQDISSFRYEVLDLLGNR
notes: human TRPC5 (transient receptor potential canonical 5), C-terminally truncated construct, residues 1-764; Same construct as m1, but uncleaved and unpurified; It is detected by the fluorescence of its GFP tag in FSEC; source: HEK293F, transfected (PEI), solubilised in LMNG/CHS, in supernatant; not shown: GFP, N-terminal, kept; MBP, N-terminal, kept
With B2, the “stoichiometry N” value in series [4] was found to be 4.
